Legend:
B16F10 cells = conditions: cited from earlier work
[1] = tested on: AMP-activated protein kinase (AMPK); assay: AMPK expression in differentiated C2C12 cells; format: cell-based; conditions: C2C12, positive control 90 μg/mL
Description: In order to confirm the effect of 5-PF-Q on the expression of AMP-activated protein kinase (AMPK), differentiated muscle cell C2C12 cells were treated with 5-PF-Q at 10 μg/mL, 50 μg/mL, and 100 μg/mL for 24 hours, respectively, as shown in FIG. 7 (10% gel, 20 μg PTN, 1° ab pAMPK 1:3,000, tAMPK 1:1,000/2° ab 1:4,000).

Ob/Ob mice = assay: antidiabetic effect in Ob/Ob mice; format: in vivo
Description: In order to confirm the antidiabetic effect of 5-PF-Q, the changes, due to the administration of 5-PF-Q, in body weight, food intake, reduction of blood sugar levels, toxicity, and insulin resistance were measured.
The mice were divided into group A (weight 35 g or more) and group B (weight 35 g or less) based on body weight. According to the flowchart below, each group was assigned to a metformin (200 mg/kg) administration group (positive control group) and a 5-PF-Q (15 mg/kg) administration group (experimental group) and administered orally for 3 weeks. After the 3-week administration period, blood sugar levels were measured by performing an oral glucose tolerance test (OGTT), and the mice were sacrificed 3 weeks thereafter. OGTT was also performed at the same time point for the Ob/Ob vehicle group (negative control group) that was not administered with the compound, and non-diabetic C57BL/6 mice, and they were sacrificed.

SMILES	cytotoxicity (B16F10 cells)	inhibition of melanin production IC50 (B16F10 cells)	expression of AMPK (pAMPK/tAMPK) [1]	insulin resistance compared to Ob/Ob vehicle group (Ob/Ob mice; Ob/Ob mice, 200 mg/kg)	OGTT blood sugar reduction pattern (Ob/Ob mice; group A (35 g or more), 200 mg/kg oral for 3 weeks)
CCCCCc1ccc(C=O)o1 [5-pentyl-2-furaldehyde]	without cytotoxicity	8.4 mg/L			
CN(C)C(=N)N=C(N)N [metformin]			clearly observed	tendency to improve insulin resistance	blood sugar reduction pattern was similar

Source: patent US20250289795A1, “METHOD FOR PREPARATION OF COMPOUND POSSESSING 5-PENTYLFURFURAL (5-PF) STRUCTURE AND USE THEREOF” (FUGENBIO CO., LTD., priority 2022, published 2025)
